This note sets out measurements from ChEMBL document CHEMBL4800728, “Data for DCP probe JNJ-54119936” (2021).

In general, inhibition refers to the relative decrease from the control value, in per cent.

This test concerns the target T1, Muscarinic acetylcholine receptor M1 (Homo sapiens) (UniProt P11229).
T1 sequence (whole entry): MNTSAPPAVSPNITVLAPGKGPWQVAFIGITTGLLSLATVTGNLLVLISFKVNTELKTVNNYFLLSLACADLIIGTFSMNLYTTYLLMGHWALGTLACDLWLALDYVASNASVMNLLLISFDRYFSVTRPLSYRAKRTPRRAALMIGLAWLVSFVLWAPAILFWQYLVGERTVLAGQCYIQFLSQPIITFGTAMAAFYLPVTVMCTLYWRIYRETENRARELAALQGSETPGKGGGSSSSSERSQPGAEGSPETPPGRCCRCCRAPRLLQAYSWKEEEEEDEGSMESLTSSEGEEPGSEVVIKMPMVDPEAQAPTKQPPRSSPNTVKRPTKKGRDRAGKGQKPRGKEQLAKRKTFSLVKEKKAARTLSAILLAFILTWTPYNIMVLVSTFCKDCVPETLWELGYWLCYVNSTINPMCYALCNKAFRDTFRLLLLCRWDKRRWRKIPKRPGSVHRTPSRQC
The test can be described thus: M1 (h) CEREP screen.

Take `COc1nc2ccc([C@@](O)(c3ccccc3)C3CCN(C(C)=O)CC3)cc2c(Cl)c1Cc1ccc(-n2cccn2)cc1` [JNJ-54119936]: the inhibition is, setting by setting: (Compound concentration 1.0 uM) 12%; (Compound concentration 10.0 uM) 21%.
